Reference: patent US20070264319A1, “Transdermal Antiemesis Delivery System, Method and Composition Therefor” (priority 2004, published 2007)
Counter-ions that a name gives are not always drawn.

Columns and labels:
[1] = water and normal saline at 20° C.; cited from earlier work
[2] = Solubility of granisetron base in penetration enhancers; format: physicochemical; settings: thermodynamic from solid
Protocol: The incorporation of granisetron base in various penetration enhancers and solvents was determined by incrementally adding small amounts of the drug to about 100 ml of liquid penetration enhancer, and agitating the liquid mixture until the drug was no longer incorporated (i.e., saturation) to provide an apparently saturated liquid mixture at an ambient room temperature in the range of about 20 to about 25° C. Each of the saturated liquid mixtures was agitated by inverting for about 24 hours at ambient room temperature, the solution was centrifuged and its supernatant was diluted in HPLC mobile phase and assayed by the HPLC method as described in Example 2.

[3] = typical oral dose of about 1 to about 2 mg twice daily; cited from earlier work

| solubility at 24 h ([2]; oil or lipid, in Isopropyl myristate, about 20 to about 25° C.) [µg/mL] | solubility at 24 h ([2]; organic solvent or mixture, in BRIJ ® 30, about 20 to about 25° C.) [µg/mL] | solubility at 24 h ([2]; organic solvent or mixture, in DDAIP (free base), about 20 to about 25° C.) [µg/mL] | solubility at 24 h ([2]; organic solvent or mixture, in DGME (transcutol), about 20 to about 25° C.) [µg/mL] | solubility at 24 h ([2]; organic solvent or mixture, in Limonene, about 20 to about 25° C.) [µg/mL] | solubility at 24 h ([2]; organic solvent or mixture, in NMP, about 20 to about 25° C.) [µg/mL] | solubility at 24 h ([2]; organic solvent or mixture, in PEG-400, ambient room temperature about 20 to about 25° C.) [µg/mL] | solubility at 24 h ([2]; organic solvent or mixture, in Propylene glycol, about 20 to about 25° C.) [µg/mL] | solubility at 24 h ([2]; organic solvent or mixture, in SPAN ® 20, about 20 to about 25° C.) [µg/mL] | SMILES | solubility [1] | elimination half-life [3] |
| --- | --- | --- | --- | --- | --- | --- | --- | --- | --- | --- | --- |
|  |  |  |  |  |  |  |  |  | CN1C2CCCC1CC(NC(=O)c1nn(C)c3ccccc13)C2 (centres unmarked) [Granisetron hydrochloride] | soluble in water and normal saline |  |
| 5.46 | 41.2 | 7.17 | 86.6 | 8.59 | 196 | 45.7 | 31.7 | 32.9 | CN1C2CCCC1CC(NC(=O)c1nn(C)c3ccccc13)C2 (centres unmarked) [Granisetron] |  | about 7 hours |
